Assay results: ChEMBL document CHEMBL1201862, “PubChem BioAssay data set” (2004)
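Dose response: 5 concentrations. Exposure: 48 h. Format: 96-well plates. Endpoint: linear interpolation; highest concentration if not reached. GI50 marks 50% less growth.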 The source made the active and inactive calls. No stated cut-off is given here; in the data, active = GI50 up to about 1.1 µM and inactive = higher. Where a SMILES comes first, the peptide text is derived from it. The star is where a group is joined. Boc = CC(C)(C)OC(=O)*; OSu = O=C1CCC(=O)N1O*

Legend:
Test in all cases: inhibition of tumour cell growth, NCI panel, 48 h
Hs-578T = system: Hs-578T
KM12 = system: KM12
UO-31 = system: UO-31
MOLT-4 = system: MOLT-4
SNB-19 = system: SNB-19
SK-OV-3 = system: SK-OV-3
MCF7 = system: MCF7
NCI-H522 = system: NCI-H522
OVCAR-8 = system: OVCAR-8
K562 = system: K562
NCI-H226 = system: NCI-H226
EKVX = system: EKVX
MDA-MB-231 = system: MDA-MB-231
A498 = system: A498
U-251 = system: U-251
HCT-15 = system: HCT-15
786-0 = system: 786-0
HT-29 = system: HT-29
NCI-H23 = system: NCI-H23
HOP-92 = system: HOP-92

| Structure (SMILES) | GI50 (Hs-578T) | GI50 (KM12) | GI50 (UO-31) | GI50 (MOLT-4) | GI50 (SNB-19) | GI50 (SK-OV-3) | GI50 (MCF7) | GI50 (NCI-H522) | GI50 (OVCAR-8) | GI50 (K562) | GI50 (NCI-H226) | GI50 (EKVX) | GI50 (MDA-MB-231) | GI50 (A498) | GI50 (U-251) | GI50 (HCT-15) [µM] | GI50 (786-0) | GI50 (HT-29) | GI50 (NCI-H23) | GI50 (HOP-92) |
| --- | --- | --- | --- | --- | --- | --- | --- | --- | --- | --- | --- | --- | --- | --- | --- | --- | --- | --- | --- | --- |
| CCOc1ccncc1[N+](=O)[O-] | > 100 µM (inactive) | > 100 µM (inactive) | > 100 µM (inactive) | > 100 µM (inactive) | > 100 µM (inactive) | > 100 µM (inactive) | > 100 µM (inactive) | > 100 µM (inactive) | > 100 µM (inactive) | > 100 µM (inactive) | > 100 µM (inactive) | > 100 µM (inactive) | > 100 µM (inactive) | > 100 µM (inactive) | > 100 µM (inactive) | > 100 | > 100 µM (inactive) | > 100 µM (inactive) | > 100 µM (inactive) |  |
| CCCCOC(=O)C1CN2C=CC=NC2=NC1(C(F)(F)F)C(F)(F)F (stereo not given) | > 100 µM (inactive) | > 100 µM (inactive) | > 100 µM (inactive) | > 100 µM (inactive) | > 100 µM (inactive) | > 100 µM (inactive) | > 100 µM (inactive) |  | > 100 µM (inactive) | > 100 µM (inactive) | > 100 µM (inactive) | 72.6 µM (inactive) | > 100 µM (inactive) | > 100 µM (inactive) | > 100 µM (inactive) | > 100 | > 100 µM (inactive) | > 100 µM (inactive) | > 100 µM (inactive) | > 100 µM (inactive) |
| Cc1c2c(C#N)nccc2c(C)c2c1c1ccccc1n2Cc1ccccc1 | 88.5 µM (inactive) | > 100 µM (inactive) | > 100 µM (inactive) | > 10 µM (inactive) | > 100 µM (inactive) | > 100 µM (inactive) | 6.49 µM (inactive) |  | > 100 µM (inactive) | > 100 µM (inactive) | > 100 µM (inactive) | 3.79 µM (inactive) | > 100 µM (inactive) |  | > 100 µM (inactive) | > 100 | > 100 µM (inactive) | > 100 µM (inactive) | > 100 µM (inactive) | 77.8 µM (inactive) |
| CN(c1ccccc1)S(=O)(=O)c1ccccc1[N+](=O)[O-] | > 100 µM (inactive) | > 100 µM (inactive) | > 100 µM (inactive) | 26.2 µM (inactive) | > 100 µM (inactive) | > 100 µM (inactive) | > 100 µM (inactive) | 64.3 µM (inactive) | > 100 µM (inactive) | 36.3 µM (inactive) | > 100 µM (inactive) | > 100 µM (inactive) | 67.9 µM (inactive) |  | > 100 µM (inactive) | > 100 | > 100 µM (inactive) | 39.8 µM (inactive) | > 100 µM (inactive) |  |
| CCOC(=O)C(NC(=O)c1ccccc1)(Nc1ccc(S(=O)(=O)Nc2cc(C)on2)cc1)C(F)(F)F (stereo not given) | > 100 µM (inactive) | > 100 µM (inactive) | > 100 µM (inactive) | > 100 µM (inactive) | > 100 µM (inactive) | > 100 µM (inactive) | > 100 µM (inactive) | > 100 µM (inactive) | > 100 µM (inactive) | > 100 µM (inactive) | > 100 µM (inactive) | > 100 µM (inactive) | > 100 µM (inactive) |  | > 100 µM (inactive) | > 100 | > 100 µM (inactive) | > 100 µM (inactive) | > 10 µM (inactive) | > 100 µM (inactive) |
| CCC(=O)c1ccc2[nH]c3c(C)c4c(O)cc(C)nc4c(C)c3c2c1 | > 100 µM (inactive) | > 100 µM (inactive) | > 100 µM (inactive) | > 100 µM (inactive) | > 100 µM (inactive) |  | > 100 µM (inactive) | > 100 µM (inactive) | > 100 µM (inactive) |  | > 100 µM (inactive) | > 100 µM (inactive) | 40.8 µM (inactive) | > 100 µM (inactive) | 42.6 µM (inactive) | > 100 | > 100 µM (inactive) | > 100 µM (inactive) | > 100 µM (inactive) | 4.3 µM (inactive) |
| CC(C)(C)OC(=O)NC(Cc1ccc(O)cc1)C(=O)NC(CCCCN)C(=O)NC(Cc1ccc(O)cc1)C(=O)NC(CCCCN)C(=O)ON1C(=O)CCC1=O (stereo not given) (Boc-YKYK-OSu; configuration not given here) | > 100 µM (inactive) | > 100 µM (inactive) | > 100 µM (inactive) | > 100 µM (inactive) | > 100 µM (inactive) |  | > 100 µM (inactive) |  | > 100 µM (inactive) | > 100 µM (inactive) | > 100 µM (inactive) | > 100 µM (inactive) | > 100 µM (inactive) | > 100 µM (inactive) | > 100 µM (inactive) | > 100 | > 100 µM (inactive) | 89.3 µM (inactive) | > 100 µM (inactive) | > 100 µM (inactive) |
| CN(C(=O)OC(C)(C)C)[C@H]1CCCC[C@H]1N1CCCC1 | > 100 µM (inactive) | > 100 µM (inactive) | > 100 µM (inactive) | > 100 µM (inactive) | > 100 µM (inactive) | > 100 µM (inactive) | > 100 µM (inactive) | > 100 µM (inactive) | > 100 µM (inactive) | > 100 µM (inactive) | > 100 µM (inactive) | > 100 µM (inactive) | > 100 µM (inactive) | > 100 µM (inactive) | > 100 µM (inactive) | > 100 | > 100 µM (inactive) | > 100 µM (inactive) | > 100 µM (inactive) |  |
| CCOC(=O)CCc1cn2cc(Br)nc(OC)c2n1 | > 100 µM (inactive) | 5.41 µM (inactive) | 23.2 µM (inactive) | 13.3 µM (inactive) | > 100 µM (inactive) | 48.1 µM (inactive) | 16.2 µM (inactive) | 81.8 µM (inactive) | 59.2 µM (inactive) | 4.75 µM (inactive) | > 100 µM (inactive) | > 100 µM (inactive) | 39.2 µM (inactive) |  | 65.6 µM (inactive) | 6.5 | > 100 µM (inactive) | 17.9 µM (inactive) | 67.5 µM (inactive) |  |
| O=C1Nc2ccccc2/C1=N/NC(=O)C(O)(c1ccccc1)c1ccccc1 | 25.6 µM (inactive) | 17.4 µM (inactive) | 15.6 µM (inactive) | 15.2 µM (inactive) | 16.7 µM (inactive) | 22.9 µM (inactive) | 22.4 µM (inactive) |  | 24.7 µM (inactive) | 23.2 µM (inactive) | 20.6 µM (inactive) | 30.5 µM (inactive) | 18.1 µM (inactive) | 18.3 µM (inactive) | 18.2 µM (inactive) | 16.4 | 35.4 µM (inactive) | 19.5 µM (inactive) | 16.1 µM (inactive) | 18.9 µM (inactive) |
| Cc1c2ccccc2c(C)n2c1nc1cc3ccccc3cc12 | 1.25 µM (inactive) | 1.32 µM (inactive) |  | 1.32 µM (inactive) | 1.54 µM (inactive) | 2.45 µM (inactive) | 0.321 µM (active) | 1.74 µM (inactive) | 1.04 µM (active) | 2.91 µM (inactive) |  | 1.64 µM (inactive) | 1.36 µM (inactive) |  | 1.65 µM (inactive) | 1.36 | 0.955 µM (active) | 0.647 µM (active) | 1.29 µM (inactive) | 0.00215 µM (active) |
| C[N+]1(CCCl)CC[N+](C)(CCCl)CC1 (stereo not given) | > 100 µM (inactive) | > 100 µM (inactive) | 99.5 µM (inactive) | 83.6 µM (inactive) | > 100 µM (inactive) | > 100 µM (inactive) | > 100 µM (inactive) |  | > 100 µM (inactive) | > 100 µM (inactive) | > 100 µM (inactive) | > 100 µM (inactive) | > 100 µM (inactive) | > 100 µM (inactive) | > 100 µM (inactive) | > 100 | > 100 µM (inactive) | > 100 µM (inactive) | > 100 µM (inactive) |  |
| O=C1C(Cl)=C(NCCN2CCOCC2)C(=O)c2c(O)ccc(O)c21 | 3.13 µM (inactive) | 3.23 µM (inactive) | 2.36 µM (inactive) | 1.54 µM (inactive) | 1.81 µM (inactive) | 10 µM (inactive) | 1.42 µM (inactive) |  | 3.25 µM (inactive) | 2.06 µM (inactive) | 9.95 µM (inactive) | 4.9 µM (inactive) | 2.39 µM (inactive) | 6.62 µM (inactive) | 2.21 µM (inactive) | 1.72 | 2.01 µM (inactive) | 2.03 µM (inactive) | 1 µM (active) | 2.69 µM (inactive) |
| c1ccc(-c2nnn3c2NC2=C(CCCC2)C3c2ccccc2)cc1 (stereo not given) | 24.9 µM (inactive) | 15.5 µM (inactive) | 17.1 µM (inactive) | 0.425 µM (active) | 33.8 µM (inactive) | 22.1 µM (inactive) | 17.1 µM (inactive) | 5.68 µM (inactive) | 2.06 µM (inactive) | 10.3 µM (inactive) | 27.4 µM (inactive) |  | 24.6 µM (inactive) |  | 12.5 µM (inactive) | 1.54 | 16.7 µM (inactive) | 15.1 µM (inactive) | 25.8 µM (inactive) |  |
| COC(=O)C1=C(OC(=O)c2ccccc2)C(C(=O)OC)[C@]2(O)[C@@H](C(=O)OC)[C@H]1C[C@@H](c1ccccc1)[C@@H]2C(=O)OC (stereo not given in full) | 13.8 µM (inactive) | 8.63 µM (inactive) | 2.52 µM (inactive) | 3.64 µM (inactive) | 10.7 µM (inactive) | 10.6 µM (inactive) | 3.01 µM (inactive) |  | 6.11 µM (inactive) | 3.33 µM (inactive) | 2.56 µM (inactive) | 34 µM (inactive) | 15.7 µM (inactive) | 16.3 µM (inactive) | 5.24 µM (inactive) | 7.82 | 16.4 µM (inactive) | 15.7 µM (inactive) | 6.32 µM (inactive) | 2.82 µM (inactive) |
